Measured values reported in ChEMBL document CHEMBL4371004, “A-C Estrogens as Potent and Selective Estrogen Receptor-Beta Agonists (SERBAs) to Enhance Memory Consolidation under Low-Estrogen Conditions” (J Med Chem, 2018).
The source made the active and inactive calls. The rule behind the calls is not given here.

What was measured:
[1] = molecular target: T1, Progesterone receptor (Homo sapiens) (UniProt P06401); assay: Agonist activity at GAL4 DNA binding domain fused progesterone receptor ligand binding domain (unknown origin) at 0.25 to 25 uM by FRET-based assay
T1 sequence (whole entry): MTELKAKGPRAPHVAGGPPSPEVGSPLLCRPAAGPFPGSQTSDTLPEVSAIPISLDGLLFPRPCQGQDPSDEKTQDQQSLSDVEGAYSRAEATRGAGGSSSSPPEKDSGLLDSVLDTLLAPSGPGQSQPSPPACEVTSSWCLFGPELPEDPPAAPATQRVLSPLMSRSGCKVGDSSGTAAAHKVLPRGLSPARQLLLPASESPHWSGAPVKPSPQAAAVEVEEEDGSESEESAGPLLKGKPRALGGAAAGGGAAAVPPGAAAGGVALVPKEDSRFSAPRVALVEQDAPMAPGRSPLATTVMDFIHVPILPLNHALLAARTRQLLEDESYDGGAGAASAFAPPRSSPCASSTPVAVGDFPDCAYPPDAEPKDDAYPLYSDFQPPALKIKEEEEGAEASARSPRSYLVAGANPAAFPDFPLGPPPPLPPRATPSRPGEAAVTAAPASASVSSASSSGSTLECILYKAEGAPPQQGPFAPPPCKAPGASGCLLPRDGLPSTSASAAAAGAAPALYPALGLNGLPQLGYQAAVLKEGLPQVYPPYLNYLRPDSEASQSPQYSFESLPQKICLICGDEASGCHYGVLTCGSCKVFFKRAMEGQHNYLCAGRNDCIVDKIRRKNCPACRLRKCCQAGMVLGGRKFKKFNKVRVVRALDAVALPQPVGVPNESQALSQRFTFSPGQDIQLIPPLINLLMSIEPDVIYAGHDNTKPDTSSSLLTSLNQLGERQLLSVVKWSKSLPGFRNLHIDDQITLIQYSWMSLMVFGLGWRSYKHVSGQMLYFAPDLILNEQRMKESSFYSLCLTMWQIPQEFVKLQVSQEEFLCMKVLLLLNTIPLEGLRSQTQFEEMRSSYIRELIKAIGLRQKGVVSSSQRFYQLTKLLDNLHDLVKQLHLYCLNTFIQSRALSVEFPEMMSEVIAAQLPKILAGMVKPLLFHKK

[2] = molecular target: T2, Glucocorticoid receptor (Homo sapiens) (UniProt P04150); assay: Agonist activity at GAL4 DNA binding domain fused glucocorticoid receptor ligand binding domain (unknown origin) at 0.25 to 25 uM by FRET-based assay
T2 sequence (whole entry): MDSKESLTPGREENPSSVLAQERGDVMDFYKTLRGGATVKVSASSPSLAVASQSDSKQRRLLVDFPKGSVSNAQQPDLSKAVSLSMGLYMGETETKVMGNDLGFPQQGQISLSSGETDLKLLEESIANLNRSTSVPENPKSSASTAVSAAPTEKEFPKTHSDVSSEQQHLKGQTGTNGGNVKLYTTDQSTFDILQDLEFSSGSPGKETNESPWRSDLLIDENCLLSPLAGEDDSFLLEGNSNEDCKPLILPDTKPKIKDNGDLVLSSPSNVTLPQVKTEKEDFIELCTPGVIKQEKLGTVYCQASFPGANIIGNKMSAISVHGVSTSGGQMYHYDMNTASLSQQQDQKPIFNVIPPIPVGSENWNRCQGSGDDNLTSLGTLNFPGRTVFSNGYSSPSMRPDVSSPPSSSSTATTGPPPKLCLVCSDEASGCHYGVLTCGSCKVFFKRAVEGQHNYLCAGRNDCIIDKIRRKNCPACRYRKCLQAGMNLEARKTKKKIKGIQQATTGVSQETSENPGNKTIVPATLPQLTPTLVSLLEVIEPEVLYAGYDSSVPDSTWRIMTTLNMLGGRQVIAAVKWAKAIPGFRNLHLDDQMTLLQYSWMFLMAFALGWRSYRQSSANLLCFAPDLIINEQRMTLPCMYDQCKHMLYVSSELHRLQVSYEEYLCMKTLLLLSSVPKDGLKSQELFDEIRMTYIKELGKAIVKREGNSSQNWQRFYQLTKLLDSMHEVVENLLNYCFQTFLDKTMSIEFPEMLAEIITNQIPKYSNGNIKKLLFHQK

Cytochrome P450 3A4 = Cytochrome P450 3A4 (Homo sapiens, UniProt P08684)
Description: Inhibition of human recombinant CYP3A4 preincubated for 10 mins followed by NADPH addition and measured after 10 to 30 mins by P450-Glo luminescence assay

[3] = molecular target: T3, Vitamin D3 receptor (Homo sapiens) (UniProt P11473); assay: Agonist activity at GAL4 DNA binding domain fused VDR ligand binding domain (unknown origin) at 0.25 to 25 uM by FRET-based assay
T3 sequence (whole entry): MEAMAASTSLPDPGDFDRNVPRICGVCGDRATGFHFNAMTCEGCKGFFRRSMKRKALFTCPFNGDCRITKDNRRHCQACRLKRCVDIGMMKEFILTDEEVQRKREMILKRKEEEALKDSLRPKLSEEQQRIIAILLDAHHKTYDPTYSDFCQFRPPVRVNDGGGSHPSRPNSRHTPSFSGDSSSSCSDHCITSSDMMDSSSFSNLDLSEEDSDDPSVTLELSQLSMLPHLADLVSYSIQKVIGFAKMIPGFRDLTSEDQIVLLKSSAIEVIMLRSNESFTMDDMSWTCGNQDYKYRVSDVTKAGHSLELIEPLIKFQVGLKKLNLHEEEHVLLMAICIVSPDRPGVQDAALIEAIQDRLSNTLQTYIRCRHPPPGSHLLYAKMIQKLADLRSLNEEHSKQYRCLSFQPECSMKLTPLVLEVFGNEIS

Mus musculus [4] = assay: Memory enhancement effect in C57BL/6 mouse assessed as time spent with moved object at 100 pg administered as dorsal hippocampal infusion by novel object recognition test; type: functional
Mus musculus [5] = assay: Memory enhancement effect in C57BL/6 mouse assessed as time spent with novel object at 0.5 mg/kg, po administered via gavage by novel object recognition test; type: functional
Cytochrome P450 2D6 = Cytochrome P450 2D6 (Homo sapiens, UniProt P10635); assay: Inhibition of human recombinant CYP2D6 up to 100 uM preincubated for 10 mins followed by NADPH addition and measured after 10 to 30 mins by P450-Glo luminescence assay; type: ADME; conditions: recombinant enzyme
Cytochrome P450 2D6, sequence (P10635 whole entry): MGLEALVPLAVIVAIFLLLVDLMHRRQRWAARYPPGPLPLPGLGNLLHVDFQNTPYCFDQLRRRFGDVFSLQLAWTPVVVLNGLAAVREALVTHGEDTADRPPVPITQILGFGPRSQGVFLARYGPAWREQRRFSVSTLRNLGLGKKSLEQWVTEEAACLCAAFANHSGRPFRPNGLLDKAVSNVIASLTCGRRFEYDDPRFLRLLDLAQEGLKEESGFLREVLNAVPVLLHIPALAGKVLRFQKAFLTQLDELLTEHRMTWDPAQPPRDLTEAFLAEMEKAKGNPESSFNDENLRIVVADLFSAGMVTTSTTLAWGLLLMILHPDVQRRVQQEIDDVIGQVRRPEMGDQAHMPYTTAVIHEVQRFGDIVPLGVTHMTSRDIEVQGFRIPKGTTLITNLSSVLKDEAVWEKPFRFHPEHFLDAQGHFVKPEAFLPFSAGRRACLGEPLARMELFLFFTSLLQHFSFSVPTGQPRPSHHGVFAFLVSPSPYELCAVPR

Cytochrome P450 3A4, sequence (P08684 whole entry, the tested form may be a part): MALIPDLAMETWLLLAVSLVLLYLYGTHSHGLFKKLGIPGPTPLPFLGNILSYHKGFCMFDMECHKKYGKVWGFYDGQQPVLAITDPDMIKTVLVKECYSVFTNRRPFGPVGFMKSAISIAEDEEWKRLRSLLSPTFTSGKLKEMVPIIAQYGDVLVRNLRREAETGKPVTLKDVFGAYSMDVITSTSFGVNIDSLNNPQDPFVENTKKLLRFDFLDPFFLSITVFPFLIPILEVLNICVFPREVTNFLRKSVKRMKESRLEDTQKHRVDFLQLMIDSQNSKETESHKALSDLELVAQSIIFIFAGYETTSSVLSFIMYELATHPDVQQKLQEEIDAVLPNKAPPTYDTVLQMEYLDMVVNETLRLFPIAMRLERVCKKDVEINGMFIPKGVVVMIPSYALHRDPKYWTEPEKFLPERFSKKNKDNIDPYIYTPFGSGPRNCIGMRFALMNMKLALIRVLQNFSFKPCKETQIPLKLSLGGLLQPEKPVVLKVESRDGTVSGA

## OC[C@H]1CC[C@H](c2ccc(O)cc2)CC1
[1]
  Activity: inactive
[2]
  Activity: inactive
Cytochrome P450 3A4
  EC50: 89 µM
[3]
  Activity: inactive
Mus musculus [4]
  Time: 10.3 s
Mus musculus [5]
  Time: 5.3 s
Cytochrome P450 2D6
  inhibition (INH): Not Active
